In this experiment the target is T1, sGC enzyme (Homo sapiens, UniProt Q02108+Q02153).
T1 construct: incorporated into these cells detect cGMP formed by the compounds stimulating the sGC enzyme; host or cells: HEK293 cells stably expressing GloSensor 40F cGMP biosensor
T1 sequence (Q02153 1-619): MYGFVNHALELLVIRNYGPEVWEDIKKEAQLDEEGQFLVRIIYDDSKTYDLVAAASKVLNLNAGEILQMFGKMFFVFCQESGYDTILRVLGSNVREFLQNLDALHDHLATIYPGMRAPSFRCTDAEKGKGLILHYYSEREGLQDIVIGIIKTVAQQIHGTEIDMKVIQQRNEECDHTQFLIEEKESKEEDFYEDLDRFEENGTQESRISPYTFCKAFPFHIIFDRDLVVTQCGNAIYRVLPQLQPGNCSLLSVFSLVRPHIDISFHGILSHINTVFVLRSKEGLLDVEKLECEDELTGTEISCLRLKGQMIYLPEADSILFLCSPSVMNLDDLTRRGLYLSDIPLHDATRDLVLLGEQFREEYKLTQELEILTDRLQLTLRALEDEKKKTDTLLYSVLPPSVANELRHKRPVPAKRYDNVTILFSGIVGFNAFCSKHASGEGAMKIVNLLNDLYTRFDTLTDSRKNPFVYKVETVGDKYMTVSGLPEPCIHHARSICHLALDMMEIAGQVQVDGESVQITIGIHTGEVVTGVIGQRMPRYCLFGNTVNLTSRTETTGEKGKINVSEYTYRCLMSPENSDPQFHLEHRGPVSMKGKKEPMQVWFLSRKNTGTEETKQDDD
T1 sequence (Q02108 1-690): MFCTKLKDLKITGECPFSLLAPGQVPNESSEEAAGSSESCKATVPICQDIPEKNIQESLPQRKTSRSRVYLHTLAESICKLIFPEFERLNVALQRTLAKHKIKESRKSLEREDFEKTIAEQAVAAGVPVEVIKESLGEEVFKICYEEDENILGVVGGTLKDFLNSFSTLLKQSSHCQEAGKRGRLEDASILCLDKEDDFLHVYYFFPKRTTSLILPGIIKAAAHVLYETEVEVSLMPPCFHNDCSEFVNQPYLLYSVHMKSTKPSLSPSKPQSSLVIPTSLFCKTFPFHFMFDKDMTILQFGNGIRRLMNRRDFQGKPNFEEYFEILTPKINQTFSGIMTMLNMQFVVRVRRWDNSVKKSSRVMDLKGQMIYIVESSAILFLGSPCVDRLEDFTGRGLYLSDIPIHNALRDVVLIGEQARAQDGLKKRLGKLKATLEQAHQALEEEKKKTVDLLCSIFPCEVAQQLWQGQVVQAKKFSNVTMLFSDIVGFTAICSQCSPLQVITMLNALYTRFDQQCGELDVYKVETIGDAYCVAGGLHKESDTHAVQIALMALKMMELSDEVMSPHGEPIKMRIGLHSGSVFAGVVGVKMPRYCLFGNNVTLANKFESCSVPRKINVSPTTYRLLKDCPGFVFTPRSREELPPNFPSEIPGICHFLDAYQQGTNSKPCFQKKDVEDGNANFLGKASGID
As to the kind of experiment: cGMP GloSensor cell-based assay, 384-well format. The following applies: HEK293 cells expressing GloSensor 40F cGMP; 10 μM DETA-NONOate; normalized to 30 μM Compound Y; compounds in Table IA; read-out: Glo-sensor AbsEC50. The text has this:
Human embryonic kidney cells (HEK293) cells expressing GloSensor™ 40F cGMP (Part No: CS182801, Promega) were used to evaluate the activity of test compounds. The luminescent biosensors (engineered luciferase) that were incorporated into these cells detect cGMP formed by the compounds stimulating the sGC enzyme and emit luminescence.
cGMP GloSensor cells were maintained in Dulbecco's Modification of Eagle's Medium (DMEM) supplemented with fetal bovine serum (FBS, 10% final) and hygromycine (200 ug/ml). […] Cells were incubated overnight at 37° C. in a humidified chamber with 5% CO2. The next day, medium was removed and cells were replaced with 40 ul/well of GloSensor™, 2 mM (Promega Cat No E1291). Cells were treated for 90 minutes at 25° C. to allow the substrate to equilibrate in the cells. […] For endpoint SAR screening, data were collected after 55 min incubation at room temperature.
Data were fit using a 4-parameter fit (log(agonist) vs. response—variable slope) using GraphPad Prism Software v.5. n=2 for all compounds. […] Compounds failing to elicit a minimum response of 50% are reported as >30 μM or ND.
In the case of `NC1(c2n[nH]c(-c3nn(Cc4ccccc4F)c4ncccc34)n2)COC1` [Compound I-79, 3-(5-(1-(2-fluorobenzyl)-1H-pyrazolo[3,4-b]pyridin-3-yl)-1H-1,2,4-triazol-3-yl)oxetan-3-amine], the EC50 is above 1000 nM.

For the molecule `Fc1ccccc1Cn1nc(-c2nc(C3(c4ccccc4)CC3)n[nH]2)c2cccnc21` [Compound I-81, 1-(2-Fluorobenzyl)-3-(3-(1-phenylcyclopropyl)-1H-1,2,4-triazol-5-yl)-1H-pyrazolo[3,4-b]pyridine], the EC50 is above 1000 nM.

With `COc1n[nH]c(-c2nn(Cc3ccccc3F)c3ncccc23)n1` [Compound I-82, 1-(2-fluorobenzyl)-3-(3-methoxy-1H-1,2,4-triazol-5-yl)-1H-pyrazolo[3,4-b]pyridine], the EC50 lay within 100 to 1000 nM.

In the case of `Fc1ccccc1Cn1nc(-c2nc(OCC(F)(F)F)n[nH]2)c2cccnc21` [Compound I-83, 1-(2-Fluorobenzyl)-3-(3-(2,2,2-trifluoroethoxy)-1H-1,2,4-triazol-5-yl)-1H-pyrazolo[3,4-b]pyridine], the EC50 was above 1000 nM.

Take `Nc1n[nH]c(-c2nn(Cc3ccccc3F)c3ncccc23)n1` [Compound I-84, 5-(1-(2-fluorobenzyl)-1H-pyrazolo[3,4-b]pyridin-3-yl)-1H-1,2,4-triazol-3-amine]: the EC50 fell in the range of 100 to 1000 nM.

For the molecule `Cc1ccc2c(-c3nc(C(F)(F)F)n[nH]3)nn(Cc3cccc(F)c3F)c2n1` [Compound I-85, 1-(2,3-Difluorobenzyl)-6-methyl-3-(3-(trifluoromethyl)-1H-1,2,4-triazol-5-yl)-1H-pyrazolo[3,4-b]pyridine], the EC50 was below 100 nM.

`CC1(c2n[nH]c(-c3nn(Cc4ccccc4F)c4ncccc34)n2)CC1(F)F` (stereo not shown) [Compound I-87, 3-(3-(2,2-Difluoro-1-methylcyclopropyl)-1H-1,2,4-triazol-5-yl)-1-(2-fluorobenzyl)-1H-pyrazolo[3,4-b]pyridine]: the EC50 lay within 100 to 1000 nM.

As to `Fc1ccccc1Cn1nc(-c2nc(N3CC(F)(F)C3)n[nH]2)c2cccnc21` [Compound I-88, 3-(3-(3,3-difluoroazetidin-1-yl)-1H-1,2,4-triazol-5-yl)-1-(2-fluorobenzyl)-1H-pyrazolo[3,4-b]pyridine], the EC50 was above 1000 nM.

Consider `Fc1ccccc1Cn1nc(-c2nc(NCCC(F)(F)F)n[nH]2)c2cccnc21` [Compound I-89], for which the EC50 was below 100 nM.

On to `CN(C)c1n[nH]c(-c2nn(Cc3ccccc3F)c3ncccc23)n1` [Compound I-90], for which the EC50 was 100 to 1000 nM.

For `[2H]C([2H])([2H])c1n[nH]c(-c2nn(Cc3ccccc3F)c3ncccc23)n1` [Compound I-91, 1-(2-Fluorobenzyl)-3-(3-(methyl-d3)-1H-1,2,4-triazol-5-yl)-1H-pyrazolo[3,4-b]pyridine], the EC50 was below 100 nM.

Take `CC(C)(O)c1n[nH]c(-c2nn(Cc3ccccc3F)c3ncccc23)n1` [Compound I-94, 2-(5-(1-(2-fluorobenzyl)-1H-pyrazolo[3,4-b]pyridin-3-yl)-1H-1,2,4-triazol-3-yl)propan-2-ol]: the EC50 was in the range of 100 to 1000 nM.

Take `Fc1ccccc1Cn1nc(-c2nc(C3CN(CC(F)(F)F)C3)n[nH]2)c2cccnc21` [Compound I-95, 1-(2-Fluorobenzyl)-3-(3-(1-(2,2,2-trifluoroethyl)azetidin-3-yl)-1H-1,2,4-triazol-5-yl)-1H-pyrazolo[3,4-b]pyridine]: the EC50 lay in the range of 100 to 1000 nM.

As to `FCCN1CC(c2n[nH]c(-c3nn(Cc4ccccc4F)c4ncccc34)n2)C1` [Compound I-97, 1-(2-Fluorobenzyl)-3-(3-(1-(2-fluoroethyl)azetidin-3-yl)-1H-1,2,4-triazol-5-yl)-1H-pyrazolo[3,4-b]pyridine], the EC50 lay within 100 to 1000 nM.

On to `Fc1ccccc1Cn1nc(-c2nc(C(F)(F)F)n[nH]2)c2nccnc21` [Compound I-98, 1-(2-Fluorobenzyl)-3-(3-(trifluoromethyl)-1H-1,2,4-triazol-5-yl)-1H-pyrazolo[3,4-b]pyrazine], for which the EC50 was above 1000 nM.

In the case of `Fc1ccccc1Cn1nc(-c2nc(Cn3ccnc3)n[nH]2)c2cccnc21` [Compound I-99, 3-(3-((1H-imidazol-1-yl)methyl)-1H-1,2,4-triazol-5-yl)-1-(2-fluorobenzyl)-1H-pyrazolo[3,4-b]pyridine], the EC50 lay within 100 to 1000 nM.

In the case of `Fc1ccccc1Cn1nc(-c2nc(C(F)(F)F)n[nH]2)c2ccnnc21` [Compound I-100, 1-(2-Fluorobenzyl)-3-(3-(trifluoromethyl)-1H-1,2,4-triazol-5-yl)-1H-pyrazolo[3,4-c]pyridazine], the EC50 is 100 to 1000 nM.

Regarding `CC(=O)Nc1n[nH]c(-c2nn(Cc3ccccc3F)c3ncccc23)n1` [Compound I-103], the EC50 fell in the range of 100 to 1000 nM.

With `OC1(c2n[nH]c(-c3nn(Cc4ccccc4F)c4ncccc34)n2)CC1` [Compound I-104, 1-(5-(1-(2-Fluorobenzyl)-1H-pyrazolo[3,4-b]pyridin-3-yl)-1H-1,2,4-triazol-3-yl)cyclopropanol], the EC50 is below 100 nM.

Consider `CC(O)c1n[nH]c(-c2nn(Cc3ccccc3F)c3ncccc23)n1` (stereo not shown) [Compound I-107, 1-(5-(1-(2-Fluorobenzyl)-1H-pyrazolo[3,4-b]pyridin-3-yl)-1H-1,2,4-triazol-3-yl)ethanol], for which the EC50 is below 100 nM.

Turning to `COCc1n[nH]c(-c2nn(Cc3ccccc3F)c3ncccc23)n1` [Compound I-112, 1-(2-Fluorobenzyl)-3-(3-(methoxymethyl)-1H-1,2,4-triazol-5-yl)-1H-pyrazolo[3,4-b]pyridine], the EC50 is 100 to 1000 nM.

Regarding `Cc1ncc(Cn2nc(-c3nc(C)n[nH]3)c3cccnc32)cn1` [Compound I-113, 3-(3-Methyl-1H-1,2,4-triazol-5-yl)-1-((2-methylpyrimidin-5yl)methyl)-1H-pyrazolo[3,4-b]pyridine], the EC50 is below 100 nM.

With `NCc1n[nH]c(-c2nn(Cc3ccccc3F)c3ncccc23)n1` [Compound I-115, (5-(1-(2-fluorobenzyl)-1H-pyrazolo[3,4-b]pyridin-3-yl)-1H-1,2,4-triazol-3-yl)methanamine], the EC50 was in the range of 100 to 1000 nM.

Take `COCCC(O)c1n[nH]c(-c2nn(Cc3ccccc3F)c3ncccc23)n1` (stereo not shown) [Compound I-116, 1-(5-(1-(2-fluorobenzyl)-1H-pyrazolo[3,4-b]pyridin-3-yl)-1H-1,2,4-triazol-3-yl)-3-methoxypropan-1-ol]: the EC50 fell in the range of 100 to 1000 nM.

As for `C=COCc1n[nH]c(-c2nn(Cc3ccccc3F)c3ncccc23)n1` [Compound I-117], the EC50 was 100 to 1000 nM.

In the case of `Fc1cccc(Cc2nn(-c3nc(C(F)(F)F)n[nH]3)c3cccnc23)c1` [Compound I-120, 3-(3-Fluorobenzyl)-1-(3-(trifluoromethyl)-1H-1,2,4-triazol-5-yl)-1H-pyrazolo[4,3-b]pyridine], the EC50 is 100 to 1000 nM.

Regarding `Fc1cc(F)cc(Cc2nn(-c3nc(C(F)(F)F)n[nH]3)c3cccnc23)c1` [Compound I-121, 3-(3,5-Difluorobenzyl)-1-(3-(trifluoromethyl)-1H-1,2,4-triazol-5-yl)-1H-pyrazolo[4,3-b]pyridine], the EC50 fell in the range of 100 to 1000 nM.

Consider `Fc1cccc(Cc2nn(-c3nc(C(F)F)n[nH]3)c3cccnc23)c1` [Compound I-122, 1-(3-(Difluoromethyl)-1H-1,2,4-triazol-5-yl)-3-(3-fluorobenzyl)-1H-pyrazolo[4,3-b]pyridine], for which the EC50 lay within 100 to 1000 nM.

(Values after patent US12435080B2, “sGC stimulators” (Tisento Therapeutics Inc., priority 2016, dated 2025).)
